{"source": "patent US11083732B2", "about": "“Use of negative modulators of GABA receptors containing alpha5 subunits as fast acting antidepressants” (University of Maryland, Baltimore, priority 2014, dated 2021)", "key": {"[1]": {"tested_on": "amnestic properties of the anesthetic etomidate", "conditions": "0.7 mg/kg i.p.; Martin et al (2009); cited from earlier work"}, "GluA1": {"tested_on": "GluA1", "assay": "Western blotting of GluA1 in SLM tissue of hippocampal area CA1", "format": "in vivo, rat", "description": "Western blotting. SLM tissue punches (1 mm diameter) were dissected from area CA1 in hippocampal slices and pooled (3-4 punches/sample). Membranes were probed with antibodies directed against GluA1 (Millipore Bioscience Research Reagents) and β-actin (Cell Signaling Technology). Levels of proteins are expressed as the ratio of intensity normalized to β-actin intensity, as done previously (Kallarackal et al., 2013).\nSLM tissue was harvested from slices taken from unstressed rats, rats subjected to ten days of CRS and given a vehicle injection 24 hrs earlier, and rats subjected to ten days of CRS and given an injection of L-655,708 24 hrs earlier (0.7 mg/kg, i.p.). These were the same rats used for FIG. 6."}, "[2]": {"tested_on": "rats subjected to chronic restraint stress", "assay": "Social interaction test (SIT) after chronic restraint stress (CRS)", "format": "in vivo, rat", "conditions": "10 days CRS; L-655,708 0.7 mg/kg i.p.; 24 hrs post-injection; vs baseline", "description": "MRK-016 rapidly reverses loss of sucrose preference and social interaction behaviors after chronic restraint stress (FIG. 9). […] This persisted for 7 days despite further stress exposure. and in the same animals after an additional week of CRS and 7 days after the injection of MRK-016.\nChronic restraint stress (CRS). Male Sprague Dawley rats (4-5 weeks-old; Harlan Laboratories) were placed in appropriately sized restraint tubes, highly restricting their movement for periods of four hours in a brightly lit lab, every day for ten days during the light phase of their diurnal cycle (Lim et al., 2012).\nSocial interaction test (SIT). As described previously (Berton et al., 2006), rats were placed in a plastic enclosure (82×82 cm) with a 5×5 grid of squares (16.4×16.4 cm) visible underneath the clear plastic flooring. A small translucent perforated plastic box (20×16 cm) was placed against the center of one wall of the arena. During the testing conditions white overhead fluorescent lighting was used to illuminate the arena. A video camera positioned 170 cm above the floor of the arena was used to track the movements of the rats during the experiment.\nEach test consisted of a “target-absent” trial followed by a “target-present” trial. During testing, an individual test rat was placed in the center of the arena and, after 30s of adaptation, the rat's movements were recorded with the video camera for 2.5 minutes. […]\nResults were quantified as the percentage of time spent in the “interaction zone” (the five grid squares immediately surrounding the plastic cage) as measured for both the “target-absent” and “target-present” trials. […]\nSeveral hedonic behaviors in rodents are sensitive to chronic stress and are restored by chronic, but not acute, administration of SSRIs, providing one means to screen for potential antidepressant compounds. First, it was determined whether L-655,708 would rapidly (<24 hrs) restore normal hedonic behavior following chronic restraint stress (Watanabe et al., 1992; Lim et al., 2012), consistent with the rapid antidepressant-like actions of ketamine (Li et al., 2011). […]"}}, "note": "“Also recorded” adds a separate entry of the source.", "data": [{"smiles": "CCOC(=O)c1ncn2c1[C@@H]1CCCN1C(=O)c1cc(OC)ccc1-2", "note": "[L-655,708, ethyl (13aS)-7-methoxy-9-oxo-11, 12,13,13 a-terahydro-9H-imidazo[1,5-a]pyrrolo[2,1-c] [1,4]benzodiazepine-1-carboxylate]", "values": [{"measurement": "effect on amnestic properties of etomidate", "setting": "[1]", "value": "reverse the amnestic properties"}, {"measurement": "phosphorylation of S831 of GluA1 in SLM", "setting": "GluA1; CRS rats, 24 hours after injection", "value": "increased"}, {"measurement": "GluA1 protein level in SLM (normalized to β-actin)", "setting": "GluA1; CRS rats, L-655,708 24 hrs earlier", "value": "not significantly different than levels in unstressed controls; also recorded: increased"}, {"measurement": "phosphorylation of S831 and total GluA1 expression in SLM", "setting": "GluA1; unstressed animals, 24 hours after injection", "value": "no effect"}, {"measurement": "social interaction ratio", "setting": "[2]", "value": "not significantly different than baseline"}]}]}
